19 compounds from patent US20250115569A1, “SULFONAMIDE COMPOUNDS FOR THE TREATMENT OF NEUROLOGICAL CONDITIONS” (LARIO THERAPEUTICS LIMITED, priority 2021, published 2025) can be followed below.

SMILES strings stand for the structures.

Test [1] has as its target T1, Cav2.3 (Homo sapiens, UniProt Q15878). The test can be described thus: Whole-cell patch clamp assay (QPatch) in HEK-293 T-Rex/Kir2.1/Cav2.3e-β4-α2δ1 cells. Type of test: cell-based. The note with it: QPatch 16X, room temperature, mean ± S.E, read-out: Cav2.3 (pIC50) (converted). As to the method:
HEK-293 T-Rex/Kir2.1/Cav2.3e-β4-α2δ1 cells were seeded 96 hours before experiment and doxycycline at 0.2 μg/mL was added 24 hours before experiment. Just before the experiments cells were washed twice with D-PBS w/o Ca^2+/Mg^2+ and gently detached from the flask with Detachin. Cells were then re-suspended in the suspension solution (25 mL EX-CELL ACF CHO medium; 0.25 mL of 100× Penicillin/Streptomycin) and placed on the Automated Patch-clamp platform (QPatch 16X).
Standard whole-cell voltage clamp experiments were performed at room temperature using the single hole technology and the following intracellular and extracellular solutions (ICS and ECS, respectively) were used. ICS (mM): CsF 60, CsCl 50, NaCl 10, EGTA 20, BAPTA 5, HEPES 10, NaGTP 0.3, MgATP 5 (pH 7.2; ECS (mM): NMDG-Cl 120, BaCl2 20, HEPES 10, EGTA 7 (pH 7.4). After establishment of the seal and the passage in the whole-cell configuration, the Cav2.3 dependent current was evoked by challenging the cells with the following voltage protocol: the plasma membrane was held at −80 mV then a 50 ms-long depolarizing pulse at 0 mV, followed by a 50 ms-long hyperpolarizing pulse at −100 mV were applied and finally the plasma membrane was held back to −80 mV. This voltage protocol was applied every 10 seconds. Cav2.3 dependent current was first measured in control condition (vehicle, 0.1% DMSO), in the presence of increasing concentration of the compound under investigation and finally SNX 482 was added to fully block any R-type Cav2.3 dependent current.
For data collection, the Sophion proprietary software was used while the analysis was performed off-line using Excel and GraphPad Prism. The inward current (Area Under Curve) measured during each depolarizing pulse was normalized to cell membrane capacitance (Cm) to obtain the average inward current density in each condition (control, compound under investigation and SNX 482). Then, the inhibitory effect of the compound under investigation was evaluated as % of the remaining inward current, normalized to the internal control. […] All data were expressed as mean±S.E
Background: The patch-clamp technique gives a direct electrical read-out from membranes.

For the next test, the system named is Human Cav2.3 channel. The test can be described thus: Human Cav2.3 channel calcium-influx assay. In kind it is cell-based. The note with it: Fluo8 fluorescence, HEK-293 T-Rex/Kir2.1/Cav2.3e cells, without pluronic acid. The essentials: (§1)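 HEK-293 T-Rex/Kir2.1 cells with doxycycline (0.2 μg/mL)-inducible Cav2.3e plus Cavβ4-α2δ1, loaded with Fluo8 NW in 0 mM K+ Tyrode's. Compounds (8 points, top 30 μM, half-log, 0.3% final DMSO, n=4) preincubated 3 min at RT, then depolarized with 20 mM KCl/2 mM CaCl2 (final); fluorescence read 130 s.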

For test [2], the target named is T1, Cav2.3. The experiment in a line: Human Cav2.3 channel calcium-influx assay. In kind it is cell-based. As to conditions: Fluo8 fluorescence, HEK-293 T-Rex/Kir2.1/Cav2.3e cells, without pluronic acid, read-out: Cav2.3 (pIC50) (converted). An outline of the steps: as §1
The next test has as its system MES model of epilepsy. The experiment in a line: Maximal electroshock stimulation model (MES) in mouse. Type of test: in vivo. The note with it: 1.5 mg/kg, oral administration. As to the method:
Compounds of the invention were tested in an in vivo model of epilepsy, the MES model in mouse, according to the method described in Kehne et al, Neurochemistry Research 42:1894-1903 (2017) 1 https://doi.org/10.1007/s11064-017-2275-z.
Background: In the maximal electroshock model the usual endpoint is tonic extension of the hind limbs.

Test [3] addresses R-type calcium current in substantia nigra dopamine neurons (Mus musculus (Mouse), UniProt Q61290). The test can be described thus: Ex vivo whole cell patch clamp in substantia nigra dopamine neurons, mouse brain slice. Type of test: cell-based. The note with it: concentrations of 10 μM. Here is the method: Compounds of the invention were tested on R-type calcium current with whole cell patch clamp electrophysiology in substantia nigra dopamine neurons in an ex vivo brain slice preparation according to the methods described in Siller et al., Elife, 11:e67464 (2022) https://doi.org/i0.7554/eLife.67464.

T1 sequence (Q15878 whole entry, looked up): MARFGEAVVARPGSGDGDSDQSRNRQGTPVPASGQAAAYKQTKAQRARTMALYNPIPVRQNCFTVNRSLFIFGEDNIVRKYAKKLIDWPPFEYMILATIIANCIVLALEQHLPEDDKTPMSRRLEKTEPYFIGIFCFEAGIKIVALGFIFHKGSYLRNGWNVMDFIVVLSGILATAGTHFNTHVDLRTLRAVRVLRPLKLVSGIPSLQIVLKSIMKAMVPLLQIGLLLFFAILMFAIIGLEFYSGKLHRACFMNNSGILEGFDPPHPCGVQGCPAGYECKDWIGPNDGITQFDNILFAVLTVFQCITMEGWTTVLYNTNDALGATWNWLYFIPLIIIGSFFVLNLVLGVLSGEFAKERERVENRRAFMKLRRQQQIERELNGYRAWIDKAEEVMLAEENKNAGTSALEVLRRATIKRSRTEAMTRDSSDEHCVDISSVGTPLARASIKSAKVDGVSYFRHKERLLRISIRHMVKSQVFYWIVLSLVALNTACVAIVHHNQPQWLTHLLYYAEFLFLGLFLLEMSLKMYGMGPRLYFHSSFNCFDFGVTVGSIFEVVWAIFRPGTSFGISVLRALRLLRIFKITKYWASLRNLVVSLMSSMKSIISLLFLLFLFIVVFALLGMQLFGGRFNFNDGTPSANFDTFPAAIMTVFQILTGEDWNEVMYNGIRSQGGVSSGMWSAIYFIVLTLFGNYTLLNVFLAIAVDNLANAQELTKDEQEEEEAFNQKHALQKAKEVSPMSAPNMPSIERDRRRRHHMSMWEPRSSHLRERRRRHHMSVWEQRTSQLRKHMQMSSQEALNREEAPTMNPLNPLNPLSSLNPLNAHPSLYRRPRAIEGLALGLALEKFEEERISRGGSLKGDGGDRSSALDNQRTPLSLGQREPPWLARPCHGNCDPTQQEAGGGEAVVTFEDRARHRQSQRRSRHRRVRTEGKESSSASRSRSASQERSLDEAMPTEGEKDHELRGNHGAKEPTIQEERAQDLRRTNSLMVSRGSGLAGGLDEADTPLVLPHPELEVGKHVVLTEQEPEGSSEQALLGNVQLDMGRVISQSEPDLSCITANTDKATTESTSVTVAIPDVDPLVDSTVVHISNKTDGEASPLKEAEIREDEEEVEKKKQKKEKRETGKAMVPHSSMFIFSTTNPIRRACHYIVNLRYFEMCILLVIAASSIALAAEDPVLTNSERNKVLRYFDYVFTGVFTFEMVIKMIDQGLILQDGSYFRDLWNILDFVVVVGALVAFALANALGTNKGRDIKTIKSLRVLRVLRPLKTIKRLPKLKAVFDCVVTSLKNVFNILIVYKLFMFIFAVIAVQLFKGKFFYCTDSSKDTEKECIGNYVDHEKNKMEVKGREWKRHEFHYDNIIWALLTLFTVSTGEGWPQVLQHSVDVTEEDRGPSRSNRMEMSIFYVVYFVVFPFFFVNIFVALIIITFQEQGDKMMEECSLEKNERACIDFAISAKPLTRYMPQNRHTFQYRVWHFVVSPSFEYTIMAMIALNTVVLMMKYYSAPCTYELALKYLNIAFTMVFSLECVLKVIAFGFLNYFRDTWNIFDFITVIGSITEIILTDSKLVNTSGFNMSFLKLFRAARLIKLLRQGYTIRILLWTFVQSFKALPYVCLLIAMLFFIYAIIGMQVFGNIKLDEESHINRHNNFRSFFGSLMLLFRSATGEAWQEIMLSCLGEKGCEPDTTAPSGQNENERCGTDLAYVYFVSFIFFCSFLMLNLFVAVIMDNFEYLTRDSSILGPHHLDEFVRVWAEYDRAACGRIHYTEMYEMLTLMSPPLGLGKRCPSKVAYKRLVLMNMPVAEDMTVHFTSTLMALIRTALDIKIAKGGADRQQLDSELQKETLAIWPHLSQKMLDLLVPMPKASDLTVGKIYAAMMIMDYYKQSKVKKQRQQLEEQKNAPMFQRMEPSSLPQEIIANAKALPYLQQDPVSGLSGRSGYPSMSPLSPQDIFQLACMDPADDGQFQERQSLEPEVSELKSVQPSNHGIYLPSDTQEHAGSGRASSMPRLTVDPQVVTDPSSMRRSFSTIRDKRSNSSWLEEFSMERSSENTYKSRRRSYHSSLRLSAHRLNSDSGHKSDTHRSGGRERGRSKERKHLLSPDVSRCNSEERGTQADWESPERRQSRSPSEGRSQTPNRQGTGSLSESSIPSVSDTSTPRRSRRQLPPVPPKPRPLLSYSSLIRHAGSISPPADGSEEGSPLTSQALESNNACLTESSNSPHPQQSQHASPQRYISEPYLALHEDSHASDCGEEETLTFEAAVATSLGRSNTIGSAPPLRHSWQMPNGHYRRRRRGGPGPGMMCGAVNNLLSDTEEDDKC
Sequence of R-type calcium current in substantia nigra dopamine neurons (Q61290 whole entry): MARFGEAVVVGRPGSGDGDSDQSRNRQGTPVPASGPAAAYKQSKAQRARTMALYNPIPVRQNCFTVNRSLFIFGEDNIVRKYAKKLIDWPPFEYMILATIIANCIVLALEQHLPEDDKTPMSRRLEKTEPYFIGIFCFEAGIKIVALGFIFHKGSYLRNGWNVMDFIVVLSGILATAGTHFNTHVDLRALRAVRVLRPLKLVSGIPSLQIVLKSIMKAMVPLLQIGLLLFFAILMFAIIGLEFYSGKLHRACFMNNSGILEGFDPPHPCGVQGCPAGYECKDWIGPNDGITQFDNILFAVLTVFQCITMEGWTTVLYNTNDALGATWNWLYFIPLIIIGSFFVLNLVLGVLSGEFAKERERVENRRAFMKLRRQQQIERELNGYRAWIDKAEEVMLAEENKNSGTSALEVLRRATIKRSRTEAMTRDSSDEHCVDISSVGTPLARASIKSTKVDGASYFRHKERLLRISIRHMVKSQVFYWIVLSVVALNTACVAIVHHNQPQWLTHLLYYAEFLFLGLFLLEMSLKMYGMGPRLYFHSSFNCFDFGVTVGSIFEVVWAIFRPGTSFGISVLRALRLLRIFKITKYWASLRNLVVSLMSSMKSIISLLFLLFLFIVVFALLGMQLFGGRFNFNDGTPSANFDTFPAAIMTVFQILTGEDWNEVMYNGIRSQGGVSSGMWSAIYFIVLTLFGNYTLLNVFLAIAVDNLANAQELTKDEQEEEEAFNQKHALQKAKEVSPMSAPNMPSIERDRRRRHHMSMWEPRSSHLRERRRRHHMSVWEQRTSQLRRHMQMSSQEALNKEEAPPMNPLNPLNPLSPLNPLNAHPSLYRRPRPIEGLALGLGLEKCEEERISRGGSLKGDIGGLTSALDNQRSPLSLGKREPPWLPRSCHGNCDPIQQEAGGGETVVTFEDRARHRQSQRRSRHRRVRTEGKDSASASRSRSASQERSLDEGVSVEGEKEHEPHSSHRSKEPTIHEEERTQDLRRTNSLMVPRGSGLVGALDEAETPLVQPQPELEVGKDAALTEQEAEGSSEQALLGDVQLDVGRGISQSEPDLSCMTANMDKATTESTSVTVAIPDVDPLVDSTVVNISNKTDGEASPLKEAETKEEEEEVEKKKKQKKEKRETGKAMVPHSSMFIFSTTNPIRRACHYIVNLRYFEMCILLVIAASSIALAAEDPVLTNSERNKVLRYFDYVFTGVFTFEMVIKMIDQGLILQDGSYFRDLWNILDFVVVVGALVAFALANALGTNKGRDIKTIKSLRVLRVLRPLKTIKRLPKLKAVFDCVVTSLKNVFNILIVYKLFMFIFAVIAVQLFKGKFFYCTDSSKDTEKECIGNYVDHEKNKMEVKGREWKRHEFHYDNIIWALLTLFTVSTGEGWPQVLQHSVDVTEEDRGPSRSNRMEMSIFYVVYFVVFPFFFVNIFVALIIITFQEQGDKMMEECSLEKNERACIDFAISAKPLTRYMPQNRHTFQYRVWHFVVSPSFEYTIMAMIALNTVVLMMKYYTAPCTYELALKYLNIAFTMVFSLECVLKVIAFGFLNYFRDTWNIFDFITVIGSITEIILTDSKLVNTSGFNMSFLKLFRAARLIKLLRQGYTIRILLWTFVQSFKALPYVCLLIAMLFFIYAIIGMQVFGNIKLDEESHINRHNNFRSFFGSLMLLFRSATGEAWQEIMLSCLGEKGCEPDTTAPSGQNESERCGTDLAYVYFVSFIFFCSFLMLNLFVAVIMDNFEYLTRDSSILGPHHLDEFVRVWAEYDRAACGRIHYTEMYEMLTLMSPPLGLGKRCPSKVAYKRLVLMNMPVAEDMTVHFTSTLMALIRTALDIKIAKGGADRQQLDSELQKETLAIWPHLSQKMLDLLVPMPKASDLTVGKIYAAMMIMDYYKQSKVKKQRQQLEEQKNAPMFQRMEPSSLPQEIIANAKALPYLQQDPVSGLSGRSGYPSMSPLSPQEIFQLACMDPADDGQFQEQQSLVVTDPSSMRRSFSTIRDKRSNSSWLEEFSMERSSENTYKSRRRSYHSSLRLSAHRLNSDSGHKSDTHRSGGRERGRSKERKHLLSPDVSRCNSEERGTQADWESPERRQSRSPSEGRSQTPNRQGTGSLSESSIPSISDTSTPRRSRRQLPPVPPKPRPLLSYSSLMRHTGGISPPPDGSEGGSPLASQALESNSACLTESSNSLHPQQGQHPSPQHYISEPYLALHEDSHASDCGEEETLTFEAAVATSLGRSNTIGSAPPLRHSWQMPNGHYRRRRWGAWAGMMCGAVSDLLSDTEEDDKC

Take `CCN([C@H](c1ccc(F)cc1)C(F)(F)F)S(=O)(=O)c1ccn2ccnc2c1` [Example 136, (R)—N-ethyl-N-(2,2,2-trifluoro-1-(4-fluorophenyl)ethyl)imidazo[1,2-a]pyridine-7-sulfonamide]: the IC50 at Cav2.3 [1] was 64.6 nM. Further, the “Cav2.3 (pIC50)” value with Human Cav2.3 channel is given as 7.50.

As to `CCN([C@H](c1ccc(F)cc1)C(F)(F)F)S(=O)(=O)c1cncc(F)c1` (stereo in doubt) [Example 219, N-ethyl-5-fluoro-N-(2,2,2-trifluoro-1-(4-fluorophenyl)ethyl)pyridine-3-sulfonamide], the IC50 on Cav2.3 [1] was 42.7 nM.

As for `CCN([C@H](c1ccc(F)cc1)C(F)(F)F)S(=O)(=O)c1cnc(C)nc1` [Example 77, (R)—N-ethyl-2-methyl-N-(2,2,2-trifluoro-1-(4-fluorophenyl)ethyl)pyrimidine-5-sulfonamide], the IC50 on Cav2.3 [1] is 562 nM. Besides, the “Cav2.3 (pIC50)” value in the test with Human Cav2.3 channel turned out to be 7.01.

For `CN([C@H](c1ccc(Cl)cc1)C(F)(F)F)S(=O)(=O)c1ccc2nccn2c1` [Example 178, (R)—N-(1-(4-chlorophenyl)-2,2,2-trifluoroethyl)-N-methylimidazo[1,2-a]pyridine-6-sulfonamide], the IC50 at Cav2.3 [1] was 380 nM; on Cav2.3 [2], 178 nM.

For `CCN([C@H](c1ccc(F)cc1)C(F)(F)F)S(=O)(=O)c1cncc(C#N)c1` [Example 35, (R)-5-cyano-N-ethyl-N-(2,2,2-trifluoro-1-(4-fluorophenyl)ethyl)pyridine-3-sulfonamide], in the test with MES model of epilepsy, the “activity in the MES model” value was “active”. For the same compound, the IC50 at Cav2.3 [1] is 46.8 nM. For the same compound, in test [3], the “activity blocking R-type calcium current” value is recorded as “active”. Moreover, in the test with Human Cav2.3 channel, the “Cav2.3 (pIC50)” value amounted to 7.87.

Turning to `CN([C@H](c1ccc(Cl)cc1)C(F)(F)F)S(=O)(=O)c1cncc(C#N)c1` [Example 171, (R)—N-(1-(4-chlorophenyl)-2,2,2-trifluoroethyl)-5-cyano-N-methylpyridine-3-sulfonamide], the IC50 at Cav2.3 [1] is 132 nM; at Cav2.3 [2], 25.7 nM.

Turning to `CN([C@H](c1ccc(Cl)cc1)C(F)(F)F)S(=O)(=O)c1ccn2ncnc2c1` [Example 191, (R)—N-(1-(4-chlorophenyl)-2,2,2-trifluoroethyl)-N-methyl-[1,2,4]triazolo[1,5-a]pyridine-7-sulfonamide], the IC50 at Cav2.3 [1] is 457 nM; at Cav2.3 [2] it was 145 nM.

With `CN([C@H](c1ccc(C(F)(F)F)cc1)C(F)(F)F)S(=O)(=O)c1cncc(C#N)c1` [Example 68, (R)-5-Cyano-N-methyl-N-(2,2,2-trifluoro-1-(4-(trifluoromethyl)phenyl)ethyl)pyridine-3-sulfonamide], the IC50 on Cav2.3 [1] was 72.4 nM; on Cav2.3 [2] it was 35.5 nM.

`CN([C@H](c1ccc(Cl)cc1)C(F)(F)F)S(=O)(=O)c1cncc(F)c1` [Example 220, (R)—N-(1-(4-chlorophenyl)-2,2,2-trifluoroethyl)-5-fluoro-N-methylpyridine-3-sulfonamide]: the IC50 on Cav2.3 [1] was 141 nM; at Cav2.3 [2], 30.2 nM.

Consider `CN([C@H](c1ccc(C(F)(F)F)cc1)C(F)(F)F)S(=O)(=O)c1cncnc1` [Example 172, (R)—N-methyl-N-(2,2,2-trifluoro-1-(4-(trifluoromethyl)phenyl)ethyl)pyrimidine-5-sulfonamide], for which the IC50 on Cav2.3 [1] is 295 nM. In addition, the “Cav2.3 (pIC50)” value in the test on Human Cav2.3 channel turned out to be 7.23.

Regarding `CCN([C@H](c1ccc(F)cc1)C(F)(F)F)S(=O)(=O)c1ccc(C#N)s1` [Example 5, (R)-5-cyano-N-ethyl-N-(2,2,2-trifluoro-1-(4-fluorophenyl)ethyl)thiophene-2-sulfonamide], the IC50 on Cav2.3 [1] was 1350 nM. Moreover, the “Cav2.3 (pIC50)” value in the test on Human Cav2.3 channel is 6.56.

For `CCN([C@@H](c1ccc(F)cc1)C(F)(F)F)S(=O)(=O)c1ccc(C)s1` [Example 9, (S)—N-ethyl-5-methyl-N-(2,2,2-trifluoro-1-(4-fluorophenyl)ethyl)thiophene-2-sulfonamide], the IC50 on Cav2.3 [1] is 1910 nM. In the test on Human Cav2.3 channel, the “Cav2.3 (pIC50)” value was found to be 5.16.

For the compound `CCN(C(c1ccc(F)cc1)C(F)(F)F)S(=O)(=O)CC1CCOCC1` (stereo not drawn) [Example 20, N-ethyl-1-(tetrahydro-2H-pyran-4-yl)-N-(2,2,2-trifluoro-1-(4-fluorophenyl)ethyl)methanesulfonamide], the IC50 is 708 nM on Cav2.3 [1] and 794 nM at Cav2.3 [2].

Turning to `CCN(C(c1ccc(F)cc1)C(F)(F)F)S(=O)(=O)c1cncnc1` [Example 133, (R)—N-ethyl-N-(2,2,2-trifluoro-1-(4-fluorophenyl)ethyl)pyrimidine-5-sulfonamide], the IC50 on Cav2.3 [1] was 148 nM. In addition, the “Cav2.3 (pIC50)” value with Human Cav2.3 channel was 7.20.

`CCN([C@H](c1ccc(F)cc1)C(F)(F)F)S(=O)(=O)c1cncc(N2CCOCC2)c1` [Example 96, (R)—N-ethyl-5-morpholino-N-(2,2,2-trifluoro-1-(4-fluorophenyl)ethyl)pyridine-3-sulfonamide]: the IC50 at Cav2.3 [1] was 67.6 nM. Moreover, the “Cav2.3 (pIC50)” value in the test with Human Cav2.3 channel came to 6.95.

With `CN(C(c1ccc(F)cc1)C(F)(F)F)S(=O)(=O)c1ccc(C#N)s1` (stereo not drawn) [Example 2, 5-cyano-N-methyl-N-(2,2,2-trifluoro-1-(4-fluorophenyl)ethyl)thiophene-2-sulfonamide], the IC50 at Cav2.3 [1] is 1480 nM. For the same compound, in the test with Human Cav2.3 channel, the “Cav2.3 (pIC50)” value came to 6.14.

For the compound `CCN([C@@H](c1ccc(F)cc1)C(F)(F)F)S(=O)(=O)c1ccc(C#N)s1` [Example 4, (S)-5-cyano-N-ethyl-N-(2,2,2-trifluoro-1-(4-fluorophenyl)ethyl)thiophene-2-sulfonamide], at Cav2.3 [1], the IC50 is 447 nM. The “Cav2.3 (pIC50)” value with Human Cav2.3 channel is given as 5.30.

Regarding `Cc1ccc(S(=O)(=O)N(C)[C@H](c2ccc(F)cc2)C(F)(F)F)s1` [Example 13, (R)—N,5-dimethyl-N-(2,2,2-trifluoro-1-(4-fluorophenyl)ethyl)thiophene-2-sulfonamide], the IC50 at Cav2.3 [1] is 2570 nM. For the same compound, the “Cav2.3 (pIC50)” value in the test with Human Cav2.3 channel was determined as 5.41.

As for `CCN([C@H](c1ccc(F)cc1)C(F)(F)F)S(=O)(=O)C1CCOCC1` [Example 63, (R)—N-ethyl-N-(2,2,2-trifluoro-1-(4-fluorophenyl)ethyl)tetrahydro-2H-pyran-4-sulfonamide], the IC50 on Cav2.3 [1] was 302 nM. For the same compound, the “Cav2.3 (pIC50)” value with Human Cav2.3 channel stood at 6.92.
